The text below walks through data of patent US20220289753A1, “SHP2 INHIBITORS” (IRBM S.P.A., priority 2019, published 2022).

The target of test [1] is T1, SHP-2 enzyme (Met1-Leu525) (Homo sapiens, UniProt Q06124).
T1 construct: synthetized by Origene, Met1-Leu525, cat #TP750155; purchased Origene TP750155
T1 sequence (Q06124 1-525): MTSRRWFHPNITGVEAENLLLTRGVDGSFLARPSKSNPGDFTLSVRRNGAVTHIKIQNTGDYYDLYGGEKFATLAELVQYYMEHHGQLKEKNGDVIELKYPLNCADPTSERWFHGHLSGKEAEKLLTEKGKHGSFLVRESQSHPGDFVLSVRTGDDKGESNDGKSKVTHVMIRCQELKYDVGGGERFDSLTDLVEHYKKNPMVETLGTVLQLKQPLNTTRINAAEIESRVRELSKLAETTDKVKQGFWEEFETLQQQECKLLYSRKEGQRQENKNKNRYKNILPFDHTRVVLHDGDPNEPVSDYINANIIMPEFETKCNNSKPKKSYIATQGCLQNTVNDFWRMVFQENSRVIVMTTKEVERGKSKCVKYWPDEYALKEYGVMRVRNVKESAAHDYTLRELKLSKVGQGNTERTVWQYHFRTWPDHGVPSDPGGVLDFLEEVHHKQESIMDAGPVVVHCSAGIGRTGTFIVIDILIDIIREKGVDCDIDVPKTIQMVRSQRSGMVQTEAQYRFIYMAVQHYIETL
The experiment in a line: SHP2 inhibition enzymatic assay (DiFMUP substrate, IRS1 peptide activation). In kind it is biochemical. The note with it: SHP2 wt; activated by 500 nM IRS1 peptide; 75 μM DiFMUP substrate. The essentials: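 SHP-2 (Met1-Leu525, 0.5 nM final) preincubated 30 min with compounds and IRS1 activating peptide in HEPES pH 7.2 buffer with NaCl, KCl, EDTA, tween-20, 5 mM DTT. DiFMUP then added for 30 min at room temperature and fluorescence read. IC50 from four-parameter logistic fit of % inhibition.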

Test [2] relates to ERK phosphorylation in KYSE-520 cells. The experiment in a line: Phospho-ERK cellular assay (Advanced phospho-ERK1/2 (Thr202/Tyr204) TR-FRET kit). The note with it: read-out: pERK IC50. In kind it is cell-based. Here is the method:
Phospho-ERK Cellular Assay
ERK phosphorylation was detected using the “Advanced phospho-ERK1/2 (Thr202/Tyr204)” TR-FRET kit (Cisbio, Cat #64AERPEG/H), following the manufacturer reagents and instructions. […] After an overnight incubation, cells were treated with DMSO serial diluted compounds and incubated for 2 h at 37° C. After incubation, 2 μL/well of 4× Lysis Buffer (Cisbio 64KL1FDF), were added and incubated with cells for 30 min on gentle shaking. Finally, lysates were added with 2 μL/well of Eu cryptate (donor) and D2 (acceptor) conjugated antibodies (as provided by the Cisbio kit #64AERPEG/H) diluted 1:100 in Detection Buffer (as provided by the Cisbio kit #64AERPEG/H). Plates were then sealed and incubated at room temperature in the dark. After an overnight incubation, the TR-FRET signal was detected on a suitable reader (Envision, PerkinElmer). The lower the TR-FRET signal the higher the higher the SHP2 inhibition in cells. […] The percentage activity is fitted against the compound dilutions with a four-parameter logistic regression. The inflection point (i.e. the concentration at which half-maximal inhibition is achieved) is the IC50.

The mark [3] stands for this setting: Homo sapiens, KYSE-520, 2 h, KYSE-520 cells, 2 h at 37° C., TR-FRET.

Molecules are shown by their SMILES. Like-named read-outs stand apart in the source and are kept apart here. Where only a bound is given, the exact number is not on record here.

What is called IC50 is the point on the concentration scale where inhibition reaches its midpoint. For `COc1nnccc1Sc1cnc2[nH]c(N3CCC4(CC3)Cc3ccccc3[C@H]4N)nc2n1` [Example 236, (S)-1′-(5-((3-methoxypyridazin-4-yl)thio)-1H-imidazo[4,5-b]pyrazin-2-yl)-1,3-dihydrospiro[indene-2,4′-piperidin]-1-amine], the values for the IC50 in test [1] and in test [2] (setting [3]) were 500 to 3000 nM and over 5000 nM, respectively.
With `N[C@@H]1c2ccccc2CC12CCN(c1nc3nc(Sc4ccnc5cccc(F)c45)cnc3[nH]1)CC2` [Example 218, (S)-1′-(5-((5-fluoroquinolin-4-yl)thio)-1H-imidazo[4,5-b]pyrazin-2-yl)-1,3-dihydrospiro[indene-2,4′-piperidin]-1-amine], the IC50 in test [1] is under 500 nM; in test [2] (setting [3]) it was under 1000 nM.
For `Cc1ccnc2c(Sc3cnc4[nH]c(N5CCC6(CC5)Cc5ccccc5[C@H]6N)nc4n3)ccnc12` [Example 254, (S)-1′-(5-((8-methyl-1,5-naphthyridin-4-yl)thio)-1H-imidazo[4,5-b]pyrazin-2-yl)-1,3-dihydrospiro[indene-2,4′-piperidin]-1-amine] the same measures were under 500 nM and under 1000 nM.
With `N#CC1CN(c2nccc(Sc3cnc4[nH]c(N5CCC6(CC5)Cc5ccccc5[C@H]6N)nc4n3)c2Cl)C1` [Example 191, (S)-1-(4-((2-(1-amino-1,3-dihydrospiro[indene-2,4′-piperidin]-1′-yl)-1H-imidazo[4,5-b]pyrazin-5-yl)thio)-3-chloropyridin-2-yl)azetidine-3-carbonitrile], the IC50 was under 500 nM in test [1] and under 1000 nM in test [2] (setting [3]).
For the compound `N[C@@H]1c2ccccc2CC12CCN(c1nc3nc(Sc4cccnc4C(F)(F)F)cnc3[nH]1)CC2` [Example 107, (S)-1′-(5-((2-(trifluoromethyl)pyridin-3-yl)thio)-1H-imidazo[4,5-b]pyrazin-2-yl)-1,3-dihydrospiro[indene-2,4′-piperidin]-1-amine], the figures for the IC50 in test [1] and in test [2] (setting [3]) were under 500 nM and under 1000 nM, respectively.
In the case of `N[C@@H]1c2cccnc2CC12CCN(c1nc3ncc(Sc4cccc5c4CCC(=O)N5)nc3[nH]1)CC2` [Example 170, (S)-5-((2-(5-amino-5,7-dihydrospiro[cyclopenta[b]pyridine-6,4′-piperidin]-1′-yl)-1H-imidazo[4,5-b]pyrazin-5-yl)thio)-3,4-dihydroquinolin-2(1H)-one], the IC50 in test [1] is under 500 nM; in test [2] (setting [3]), 1000 to 5000 nM.
The matching figures for `CNc1nccc(-c2cnc3[nH]c(N4CCC5(CC4)Cc4ccccc4[C@H]5N)nc3n2)c1Cl` [Example 140, (S)-1′-(5-(3-chloro-2-(methylamino)pyridin-4-yl)-1H-imidazo[4,5-b]pyrazin-2-yl)-1,3-dihydrospiro[indene-2,4′-piperidin]-1-amine]: 500 to 3000 nM and over 5000 nM.
As for `COc1nccc(Sc2cnc3[nH]c(N4CCC5(CC4)Cc4ncccc4[C@H]5N)nc3n2)c1Cl` [Example 151, (S)-1′-(5-((3-chloro-2-methoxypyridin-4-yl)thio)-1H-imidazo[4,5-b]pyrazin-2-yl)-5,7-dihydrospiro[cyclopenta[b]pyridine-6,4′-piperidin]-5-amine], the IC50 in test [1] is under 500 nM; in test [2] (setting [3]) it was over 5000 nM.
In the case of `N[C@@H]1c2ccccc2CC12CCN(c1nc3nc(Sc4cccc5c4OCC(=O)N5)cnc3[nH]1)CC2` [Example 157], the IC50 in test [1] was under 500 nM; in test [2] (setting [3]), over 5000 nM.
The matching figures for `N[C@@H]1c2cc(F)ccc2CC12CCN(c1nc3ncc(Sc4ccncc4F)nc3[nH]1)CC2` [Example 187, (S)-6-fluoro-1′-(6-((3-fluoropyridin-4-yl)thio)-1H-imidazo[4,5-b]pyrazin-2-yl)-1,3-dihydrospiro[indene-2,4′-piperidin]-1-amine]: under 500 nM and under 1000 nM.
For the compound `N[C@@H]1c2cccnc2CC12CCN(c1nc3nc(Sc4ccnc(OC5COC5)c4Cl)cnc3[nH]1)CC2` [Example 153, (S)-1′-(5-((3-chloro-2-(oxetan-3-yloxy)pyridin-4-yl)thio)-1H-imidazo[4,5-b]pyrazin-2-yl)-5,7-dihydrospiro[cyclopenta[b]pyridine-6,4′-piperidin]-5-amine], the IC50 is 500 to 3000 nM in test [1] and over 5000 nM in test [2] (setting [3]).
The matching figures for `Nc1nccc(Sc2cnc3[nH]c(N4CCC5(CC4)Cc4ncccc4[C@H]5N)cc3n2)c1Cl` [Example 267, (S)-1′-(2-((2-amino-3-chloropyridin-4-yl)thio)-5H-pyrrolo[2,3-b]pyrazin-6-yl)-5,7-dihydrospiro[cyclopenta[b]pyridine-6,4′-piperidin]-5-amine]: under 500 nM and under 1000 nM.
With `CC1(N)CCN(c2nc3nc(Sc4cccc5ccccc45)cnc3[nH]2)CC1` [Example 60, 4-methyl-1-(5-(naphthalen-1-ylthio)-1H-imidazo[4,5-b]pyrazin-2-yl)piperidin-4-amine], the half-maximal inhibitory concentration (IC50) in test [1] is under 500 nM; in test [2] (setting [3]), 1000 to 5000 nM.
For the compound `FC(F)(F)c1ncccc1Sc1cnc2[nH]c(NCC3CNC(c4ccccc4)C3)nc2n1` (stereo not shown) [Example 128, N-((5-phenylpyrrolidin-3-yl)methyl)-5-((2-(trifluoromethyl)pyridin-3-yl)thio)-1H-imidazo[4,5-b]pyrazin-2-amine], in test [2] (Homo sapiens, KYSE-520, 2 h), the IC50 was over 5000 nM.
`N[C@@H]1c2cccc(F)c2CC12CCN(c1nc3nc(Sc4ccncc4Cl)cnc3[nH]1)CC2` [Example 207, (S)-1′-(5-((3-chloropyridin-4-yl)thio)-1H-imidazo[4,5-b]pyrazin-2-yl)-4-fluoro-1,3-dihydrospiro[indene-2,4′-piperidin]-1-amine]: the IC50 is under 500 nM in test [1]; 1000 to 5000 nM in test [2] (setting [3]); under 1000 nM in test [2] (KYSE-520 cells, 2 h at 37° C., TR-FRET).
Take `Cn1ncc2nccc(Sc3cnc4[nH]c(N5CCC6(CC5)Cc5ccccc5[C@H]6N)nc4n3)c21` [Example 261, (S)-1′-(5-((1-methyl-1H-pyrazolo[4,3-b]pyridin-7-yl)thio)-1H-imidazo[4,5-b]pyrazin-2-yl)-1,3-dihydrospiro[indene-2,4′-piperidin]-1-amine]: the IC50 is under 500 nM in test [1] and under 1000 nM in test [2] (setting [3]).
For `N[C@@H]1c2ccccc2CC12CCN(c1[nH]c3ncc(Sc4cccc(Cl)c4Cl)nc3c1Cl)CC2` [Example 248, (S)-1′-(7-chloro-2-((2,3-dichlorophenyl)thio)-5H-pyrrolo[2,3-b]pyrazin-6-yl)-1,3-dihydrospiro[indene-2,4′-piperidin]-1-amine] the same measures were under 500 nM and 1000 to 5000 nM.
Turning to `N[C@@H]1c2ccccc2CC12CCN(c1nc3nc(Sc4nccnc4Cl)cnc3[nH]1)CC2` [Example 158, (S)-1′-(5-((3-chloropyrazin-2-yl)thio)-1H-imidazo[4,5-b]pyrazin-2-yl)-1,3-dihydrospiro[indene-2,4′-piperidin]-1-amine], the half-inhibitory concentration (IC50) was under 500 nM in test [1] and under 1000 nM in test [2] (setting [3]).
For `FC(F)(F)c1ncccc1Sc1cnc2[nH]c(N3CCC4CCC(C3)N4)nc2n1` (stereo not shown) [Example 125, 2-(3,9-diazabicyclo[4.2.1]nonan-3-yl)-5-((2-(trifluoromethyl)pyridin-3-yl)thio)-1H-imidazo[4,5-b]pyrazine], the half-inhibitory concentration (IC50) in test [2] (Homo sapiens, KYSE-520, 2 h) was over 5000 nM.
In the case of `CC1(C)C2CNCC1CN(c1nc3nc(Sc4cccnc4C(F)(F)F)cnc3[nH]1)C2` [Example 124, 2-(9,9-dimethyl-3,7-diazabicyclo[3.3.1]nonan-3-yl)-5-((2-(trifluoromethyl)pyridin-3-yl)thio)-1H-imidazo[4,5-b]pyrazine], in test [2] (Homo sapiens, KYSE-520, 2 h), the IC50 was over 5000 nM.
On to `FC(F)(F)c1ncccc1Sc1cnc2nc(NC3CCNC4(CCC4)C3)[nH]c2n1` (stereo not shown) [Example 126, N-(5-azaspiro[3.5]nonan-8-yl)-6-((2-(trifluoromethyl)pyridin-3-yl)thio)-1H-imidazo[4,5-b]pyrazin-2-amine], for which, in test [2] (Homo sapiens, KYSE-520, 2 h), the half-inhibitory concentration (IC50) was over 5000 nM.
As to `Nc1nccc(Sc2cnc3[nH]c(N4CCC5(CC4)Oc4ccccc4[C@H]5N)nc3n2)c1Cl` [Example 35, (R)-1′-(5-((2-amino-3-chloropyridin-4-yl)thio)-1H-imidazo[4,5-b]pyrazin-2-yl)-3H-spiro[benzofuran-2,4′-piperidin]-3-amine], the half-inhibitory concentration (IC50) in test [2] (setting [3]) is under 1000 nM.
